Data set [1] deals with 91US005 (CCR5-tropic HIV-1 Subtype B virus). The data set is described as follows: PBMC assay, HIV-1 91US005. The settings on record: Virus 91US005, PBMCs. The data set is classed as cell-based. Here is the method: (§1) Acute infection of HIV-1 isolates (CXCR4-tropic HIV-1 Subtype B and CCR5-tropic HIV-1 Subtype) using fresh human PBMCs from multiple donors (PMA and IL-2 stimulated). Antiviral activity determined as a reduction in reverse transcriptase after 7-day incubation.
(§2) TI=TC/IC; also referred to as Therapeutic Index values (TI) or Antiviral Index (AI)
(§3) Antiviral activity was determined as a reduction in reverse transcriptase after 7-day incubation. AZT, a nucleoside analog reverse transcriptase inhibitor, was used as the positive control for the assay.
(§4) 92HT599 is a CXCR4-tropic HIV-1 Subtype B virus. 91US005 is CCR5-tropic HIV-1 Subtype B virus.

Data set [2] relates to 92HT599 (CXCR4-tropic HIV-1 Subtype B virus). Nature of the data set: PBMC assay, HIV-1 92HT599. The data set is classed as cell-based. The settings on record: Virus 92HT599, PBMCs. Here is the method: as §1, §2, §3, §4
Data set [3] concerns HIV-1. The data set is described as follows: U1 latent infection assay, antiviral (reverse transcriptase). The data set is classed as cell-based. The settings on record: U1 latent/induced. Here is the method: Histocytic leukemia cell line U937, latently infected with HIV-1, are treated with TNFα to induce virus expression in the presence of test compound. Antiviral activity is determined as a reduction in reverse transcriptase after 72 hr incubation.
as §2
The histocytic leukemia cell line U937, latently infected with HIV-1, was treated with TNFα to induce virus expression in the presence of test compound. Antiviral activity was determined as a reduction in reverse transcriptase after 72 hr incubation. Temacrazine, an inhibitor of HIV transcription initiation, was used as the positive control for the assay.

The test system of data set [4] is U937, latently infected with HIV-1 (U1 cells). Nature of the data set: U1 latent infection assay, host cell cytotoxicity. The data set is classed as cell-based. The settings on record: U1 latent/induced, 72 hr; read-out: TC50 (the source's name).
Data set [5] deals with fresh human PBMCs. Nature of the data set: PBMC assay, host cell cytotoxicity. The data set is classed as cell-based. The settings on record: for CC50: PBMCs, read-out: TC50 (the source's name).
The subject of data set [6] is CFA-induced thermal hyperalgesia. Nature of the data set: CFA-induced thermal hyperalgesia model (Hargreaves). The data set is classed as in vivo, ICR mice. The settings on record: single intraperitoneal dose 50 mg/kg; 1, 2, and 4 hours after administration. Here is the method:
The observations of pain responses were done blindly.
[…] On day 4, test subjects received a single injection of CFA (20 microliters) subcutaneously in the plantar surface of the left rear paw. CFA was injected subcutaneously into the plantar surface of the left hind paw of each test subject, under isoflurane anesthesia. […] On day 5, thermal responses were measured prior to treatment with the compound and again 1, 2, and 4 hours after treatment with […]. Withdrawal latencies were measured in response to thermal stimulus by the Hargreaves method. Naproxen was used as a positive control.

Data set [7] in a line: U1 latent infection assay, host cell cytotoxicity. The data set is classed as cell-based. The settings on record: human, U1 latent/induced, read-out: TC50.
Data set [8] is described as follows: Pharmacokinetics in mouse (IV bolus or oral dose). The data set is classed as in vivo. The settings on record: mice; for Cmax: read-out: Cmax-obs; for half-life: read-out: t1/2 (converted). Here is the method: The pharmacokinetics properties of drugs were investigated in three species, following an intravenous (IV) bolus or oral (PO) dose of Compound K at the dosages indicated in the chart. Blood samples were collected at predetermined times and the plasma separated. Plasma was separated from the blood samples collected at 5, 15 and 30 minutes and 1, 2, 4, 8 and 24 hours post-dose.
Drug levels were quantified by the LC/MS/MS method described below. Noncompartmental pharmacokinetic analysis was applied for intravenous administration. […] The terminal t1/2 and C0 were calculated using the last three and the first three data points, respectively
Bioanalysis was performed using a Quattro Micro LC/MS/MS instrument in the MRM detection mode, with an internal standard (1S). Briefly, 15 μL plasma samples were prepared for analysis using protein precipitation with 120 μL of acetonitrile. The supernatants were transferred into a 96 well plate and subjected to LC-MS/MS analysis using a Phenomenex Polar-RP HPLC column. The mobile phases were 10 mM NH4HCO3 in water (Solution-A) and 10 mM NH4HCO3 in methanol (Solution-B). The column was initially equilibrated with 25% Solution-B and followed with 100% Solution B over 5 minutes. […] Quantitation of the analytes was performed in the batch mode with two bracketing calibration curves according to the bioanalytical sample list.

Data set [9] in a line: PBMC assay, host cell cytotoxicity. The data set is classed as cell-based, human. The settings on record: human; PBMCs; read-out: TC50.
Data set [10] deals with formalin-induced persistent pain. Nature of the data set: Formalin-induced persistent pain model (flinching). The data set is classed as in vivo, ICR mice. The settings on record: 3 mg/kg, subcutaneously injected, positive control. Here is the method: See Hunskaar, et al., “The formalin test in mice: Dissociation between inflammatory and non-inflammatory pain,” Pain, vol. […] 89, 53-63 (2000). These tests were conducted with ICR mice, in accordance with guidelines established by the International Association for the Study of Pain. Compounds of the invention were used as solutions of about 3-20 mg/mL in aqueous solution at about pH 8. […] The test animals were monitored for at least 40 minutes, during which time the number of flinches occurring during each 5-minute period were observed and recorded. A cohort of 12 animals were used for each dose level of each compound tested.
The compounds were administered orally in a single dose, of 30, 100, and 200 mg/kg, one hour prior to injection of formalin Pain response was measured by flinching frequency.

The test system of data set [11] is eight CCR5-tropic HIV-1 clinical isolates. The data set is described as follows: CCR5-tropic HIV-1 clinical isolates in fresh human PBMCs. The data set is classed as cell-based. The settings on record: FIG. 5, fresh human PBMCs.
The mark [12] stands for this setting: TNFα, reverse transcriptase after 72 hr.
[13] abbreviates: Human immunodeficiency virus 1, 72 h, 72 hr, positive control.
Setting [14] is: Human immunodeficiency virus 1, PBMC, 168 h, 7-day incubation.
[15] abbreviates: Human immunodeficiency virus 1, PBMC.

Molecules are shown by their SMILES. pIC50: −log10 of the molar value. “And” between values parts separate entries of the source, which are not always exact repeats. Equal entries are not always repeated. Where two headings read alike, the source gives them in different places.

As for `O=C([O-])c1ccc2c(c1)nc(Nc1cccc(C(F)(F)F)c1)c1nc(NC3CC3)ncc12.[Na+]` [Compound 2 Na], the IC90 was 3770 nM in data set [1], 20600 nM in data set [2] and over 100000 nM in data set [3] (72 hr). Also, the “TI (TC50/IC50)” value in data set [1] is 59.6; in data set [2] it was 2.65; in data set [3], >30.9 and >30.7. Moreover, the pIC50 in data set [1] (7-day incubation) was 6.70; in data set [2] (7-day incubation), 5.34; in data set [3] (setting [12]) it was 5.49. For the same compound, the figures for the CC50 in data set [4] and in data set [5] were over 100000 nM and 12000 nM, respectively.

Consider `COc1ccc2cc([C@H](C)C(=O)O)ccc2c1` [naproxen, reference compound], for which the “effect on CFA-induced thermal hyperalgesia” value in data set [6] was “significantly reversed the CFA-induced thermal hyperalgesia”.

As to `O=c1c2ccccc2n2nnc3ccc(NCCCN4CCN(CCCNc5ccc6nnn7c8ccccc8c(=O)c5c67)CC4)c1c32` [Temacrazine, reference compound], the pIC50 in [3] (setting [13]) was 8.45; in data set [3] (72 hr, positive control), 8.44. The IC90 in data set [3] (setting [13]) is 17.9 nM; in data set [3] (72 hr, positive control) it was 16.9 nM. In [3], the “TI (TC50/IC50)” value is >28.1 and >27.4. The CC50 at 72 h in data set [7] (positive control) is over 100 nM.

`C#Cc1cccc(Nc2nc3cc(C(=O)[O-])ccc3c3cncnc23)c1.[Na+]` [Compound 1 Na]: the results for the IC90 in data set [1], in data set [2] and in [3] (72 hr) were 1410 nM, 2770 nM and 9080 nM, respectively. Besides, the “TI (TC50/IC50)” value in [1] came to 35.8; in data set [2], 3.07; in [3], 87.3. Further, the pIC50 in data set [1] (7-day incubation) is 7.00; in [2] (7-day incubation), 5.94; in data set [3] (setting [12]) it was 6.70. In addition, the CC50 in data set [4] amounted to 17100 nM; in [5], 3530 nM.

In the case of `O=C(O)c1ccc2c(c1)nc(Nc1cccc(C(F)(F)F)c1)c1nc(NC3CC3)ncc12` [Compound 2], the “cytotoxicity in PBMC's” value in data set [5] is reported as “minimal cytotoxicity”.

As to `C#Cc1cccc(Nc2nc3cc(C(=O)O)ccc3c3cncnc23)c1` [Compound 1, 5-(3-ethynylphenylamino)pyrimido[4,5-c]quinoline-8-carboxylic acid], in [8] (IV 5.4 mg/kg), the CLs turned out to be 5.28 mL/min/kg, the Cp0-exp came to 29442.03 ng/mL and the Kel came to 0.0678 h⁻¹. Also, in data set [8] (PO 10.8 mg/kg), the “F(0-24 h)” value was determined as 7.2%, the “F(0-Inf)” value is 11.0% and the Kel is 0.0323 h⁻¹. Also, the AUC(0-t) in data set [8] (mouse, plasma, iv, 5.4 mg/kg, AUC(0-8 h), IV 5.4 mg/kg) was found to be 11200 ng·h/mL. The AUC(0-t) in [8] (mouse, plasma, iv, 5.4 mg/kg, IV 5.4 mg/kg, read-out: AUC(0-24 h)) amounted to 15300 ng·h/mL. Besides, in data set [8] (mouse, plasma, po, 10.8 mg/kg, AUC(0-8 h), PO 10.8 mg/kg), the AUC(0-t) came to 1050 ng·h/mL. Besides, in data set [8] (mouse, plasma, po, 10.8 mg/kg, PO 10.8 mg/kg, read-out: AUC(0-24 h)), the AUC(0-t) stood at 2210 ng·h/mL. Besides, in data set [8] (mouse, plasma, IV 5.4 mg/kg), the AUC(0-inf) is 17000 ng·h/mL, the highest concentration (Cmax) is 21800 ng/mL and the half-life is 10.2 h. Moreover, the Vd in [8] (mouse, plasma, IV 5.4 mg/kg, read-out: Vd) came out at 4.67 L/kg. Also, in [8] (mouse, plasma, PO 10.8 mg/kg), the AUC(0-inf) was found to be 3760 ng·h/mL, the Tmax turned out to be 0.25 h, the Cmax stood at 800 ng/mL and the half-life was 21.5 h.

As to `O=C(O)c1ccc2c(c1)nc(Nc1cccc(Cl)c1)c1ccncc12` [Compound K Na], the pIC50 in [1] (setting [14]) is 5.97; in [2] (setting [14]) it was 5.46; in [3] (Human immunodeficiency virus 1, 72 h, TNFα, reverse transcriptase after 72 hr) it was 6.15. Moreover, the IC90 in [1] (setting [15]) came out at 3050 nM; in [2] (setting [15]), 8250 nM; in data set [3] (Human immunodeficiency virus 1, 72 h, 72 hr), 18000 nM. Besides, the “TI (TC50/IC50)” value in [1] worked out at 7.13; in [2], 2.18; in data set [3], 15.2. In data set [7], the CC50 at 72 h came to 10600 nM. Moreover, the CC50 at 7 days in data set [9] was 7610 nM.

With `CN1CC[C@]23c4c5ccc(O)c4O[C@H]2[C@@H](O)C=C[C@H]3[C@H]1C5` [morphine, reference compound], in data set [10], the “formalin-induced flinching, first phase” value is reported as “reduced formalin-induced flinching” and the “formalin-induced flinching, second phase” value is reported as “reduced formalin-induced flinching”.

`Cc1cn([C@H]2C[C@H](N=[N+]=[N-])[C@@H](CO)O2)c(=O)[nH]c1=O` [AZT, reference compound]: the “HIV-1 93TH073 Clade E replication” value in data set [11] was “inhibition of HIV-1 93TH073 Clade E replication”. Moreover, the “TI (TC50/IC50)” value is listed as over 611 in data set [1] and over 665 in data set [2]. Moreover, the pIC50 in data set [1] (positive control) was 8.79; in [2] (positive control), 8.82. In addition, the concentration for an effect of 90% (IC90) in data set [1] (positive control) came to 6.86 nM; in [2] (positive control), 7.58 nM. In data set [5] (positive control), the CC50 is over 1000 nM.

A word on the IC90: it is the point of the concentration-response curve where the effect stands at 90%. One may read the pIC50 as the negative decadic logarithm of the IC50, by convention in mol/L. What is called AUC(0-inf) is the area under the concentration-time curve extrapolated to infinity. Low readings indicate less exposure, high ones more exposure. The term Cmax denotes the maximum level reached in the sampled fluid or tissue. In general, Tmax refers to the time at which the peak concentration occurs.

Source of the values: patent US20100267753A1, “METHODS OF TREATING DISORDERS ASSOCIATED WITH PROTEIN KINASE CK2 ACTIVITY” (priority 2009, published 2010).
